Measurements taken from patent US10525044B2, “Treatment for chemotherapy-induced peripheral neuropathy” (priority 2013, dated 2020).
Several values for one entry are separate records, joined by “and”; a condition that tells them apart may be missing. Identical values can stand only once. Entries after “also recorded” stand apart in the source; their conditions may differ.

Legend:
[1] = 500 μM diphenylpicrylhydrazyl, cell free; cited from earlier work
[2] = tested on: mouse liver cancer cell line BNLT3; experiment: MTS assay in BNLT3 cancer cells; assay type: cell-based
Method: (§1) Cancer Cell Culture. The mouse liver cancer cell line BNLT3 (gift of Dr. Jack Wands, Brown University) and the human lung cancer cell line H460 (ATCC) were seeded into 96-well plates at a density of 4,000 cells/well and cultured at 37° C., 5% CO2, in DMEM (11965, Gibco) supplemented with 10% fetal bovine serum, 20 mM HEPES, 1 mM sodium pyruvate, and […] gentamycin (all reagents came from Gibco).
(§2) Cell Insults and Treatments. Determination of concentration for each anticancer drug in our experiments was based on its reported concentration in human cerebral spinal fluid (CSF) in chemotherapy, literature report of its neurotoxicity in culture, and our preliminary in vitro experimental data. At 13 d.i.v., the neuronal cell cultures were insulted with 100 μM of MTX (M9929, Sigma), 25 μM of 5-FU (F6627, Sigma), or 3.5 μM of CDDP (sc-200896, Santa Cruz) for 3 days in absence or presence of PAN 811.Cl.H2O. For ROS examination, the neurons were insulted with both 100 μM of MTX and 25 μM of 5-FU by 15 d.i.v. PAN-811.Cl.H2O was added to cultures to final concentrations of 1.25, 2.5, 5, and 10 μM at the same time as addition of the anticancer drugs. For cancer cell lines, the cells were insulted by the second day of cell seeding with the same concentration of MTX, 5-FU, or CDDP as used in neuronal culture in the absence or presence of 10 μM PAN-811.Cl.H2O for another 3 days.
(§3) Quantitative Assays and Morphological Assessment. Cell membrane integrity and mitochondrial function of either neurons or cancer cells were measured with LDH and 3-(4,5-dimethylthiazol-2-yl)-5-(3-carboxymethoxyphenyl)-2-(4-sulfophenyl)-2H-tetrazolium [MTS] analyses, respectively. The latter has been used to quantify cell survival. For the LDH assay, a mixture of a 35 μL aliquot of culture supernatant and 17.5 μL of Mixed Substrate, Enzyme and Dye Solutions (Sigma) was incubated at room temperature (RT) for 30 minutes. For the MTS assay, 10 μL of MTS reagent (Promega) was added to a culture well containing neurons in 50 μL of medium. The preparations were incubated at 37° C. for 2 hours. The preparations for both assays were then spectrophotometrically measured at 490 nm using a 96-well plate reader (Mode 550, Bio-Rad). Neuronal cell death was morphologically determined based on the integrity of the cell soma and continuity of neuronal processes. The change in number of cancer cells was judged directly by cell density. Cells were photographed under an inverted phase contrast microscope (IX 70, Olympus) using 10× or 20× objective.
(§4) Data Analysis. Data were generated from 4-6 replicate wells, expressed as mean±standard deviation (SD), and statistically evaluated at a significance level of 1% with one factor ANOVA or Student's t-test by using software VASSARSTATS (http://vassarstats.net/) followed by the Tukey HSD test. Figure symbols are as follows: #, P<0.05, and ##, P<0.01, compared with control; *, P<0.05, and **, P<0.01, compared with the insulted group; §§, P<0.01, compared with PAN-811 treated group by Student's t-test.

[3] = tested on: mouse liver cancer cell line BNLT3; experiment: Cell density of BNLT3 cells (phase contrast); assay type: cell-based
Method: as §1, §2, §3

[4] = tested on: human lung cancer cell line H460; experiment: MTS assay in H460 cancer cells; assay type: cell-based
Method: as §1, §2, §3, §4

[5] = tested on: mixed cortical and striatal neurons; experiment: MTS assay (cell viability) in neuronal cell culture; assay type: cell-based
Method: Neuronal Cell Culture. Mixed cortical and striatal neurons fromembryonic day 17 male Sprague-Dawley rats (tissue obtained from NIH) were seeded into poly-D-lysine coated 96-well plates at density of 50,000 cells/well and initially cultured at 37° C., 5% CO2, in neurobasal medium (NB) with B27 supplement (Invitrogen) containing full strength of AOs to obtain highly enriched (95%) neurons. Since AOs, including vitamin E, vitamin E acetate, superoxide dismutase (SOD), catalase (CAT), and GSH, are additives to culture medium, reduction of AO concentration in culture medium provides an approach to determine the level of OS involvement in a neurotoxic process. In our study, the culture medium was replaced at a 50% ratio with NB plus B27 minus AOs twice at days 7 and 9 to set AO concentrations as 50% and 25%, respectively. At 16 days in vitro (d.i.v.), a fraction of the culture medium was harvested for lactate dehydrogenase (LDH) assay, and then AO concentration was reduced to 12.5% and cultured for a further 5 hours prior to ending the experiment.
as §2, §3, §4

[6] = tested on: ischemic neurodegeneration; conditions: 0.45 μM; cited from earlier work
ribonucleotide reductase = target: T1, ribonucleotide reductase (Homo sapiens, UniProt P31350); conditions: cited from earlier work
T1 sequence (P31350 1-389): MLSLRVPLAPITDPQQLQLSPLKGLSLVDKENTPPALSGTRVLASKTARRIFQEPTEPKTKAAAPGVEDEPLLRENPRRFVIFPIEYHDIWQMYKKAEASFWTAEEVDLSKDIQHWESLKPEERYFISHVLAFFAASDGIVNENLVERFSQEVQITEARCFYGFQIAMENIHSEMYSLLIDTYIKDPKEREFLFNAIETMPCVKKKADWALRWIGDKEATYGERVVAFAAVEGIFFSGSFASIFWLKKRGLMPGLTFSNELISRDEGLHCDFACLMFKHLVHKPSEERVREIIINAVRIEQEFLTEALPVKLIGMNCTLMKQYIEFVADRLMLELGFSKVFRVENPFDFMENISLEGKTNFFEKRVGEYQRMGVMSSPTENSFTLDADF

[7] = tested on: middle cerebral artery occlusion (MCAo); conditions: cited from earlier work
[8] = tested on: human Alzheimer's disease-derived and age-matched olfactory neuroepithelial cells; conditions: via suppression of intracellular reactive oxygen species; cited from earlier work
[9] = 3.5 μM CDDP and 10 μM PAN-811, 3 days
[10] = 25 μM 5-FU and 10 μM PAN-811, 3 days
[11] = 100 μM MTX and 10 μM PAN-811, 3 days
[12] = each agent alone, 3 days: MTX 100 μM, 5-FU 25 μM, CDDP 3.5 μM, PAN-811 10 μM

**Q.** For NC(=S)N/N=C/c1ncccc1N [PAN-811, 3-aminopyridine-2-carboxaldehyde thiosemicarbazone], which “reduction of stable free radical diphenylpicrylhydrazyl” value [1] is on record?
**A.** 70%

**Q.** What about the “MTS reading, cotreatment vs PAN-811 alone” value [2, 9] of the same molecule?
**A.** did not introduce an extra reduction in MTS reading

**Q.** What about the “inhibition of the effect of MTX, 5-FU, or CDDP on BNLT3 cells” value ([2]; 10 μM PAN-811) of the same molecule?
**A.** did not show any inhibition

**Q.** And the “synergistic effect with each tested anticancer drug on BNLT3 cell growth” value ([2]; 10 μM PAN-811)?
**A.** neither did it demonstrate any synergistic effect

**Q.** What about the “MTS reading, cotreatment vs 5-FU alone” value [2, 10] of the same molecule?
**A.** caused a further reduction in MTS reading

**Q.** What about the “MTS reading, cotreatment vs MTX alone” value [2, 11] of the same molecule?
**A.** did not cause any further reduction in MTS reading

**Q.** And the “cell density, cotreatment with CDDP” value [3, 9]?
**A.** significant reduction in the cell density

**Q.** What about the “cell number, cotreatment with 5-FU” value [3, 10] of the same molecule?
**A.** significantly decreased the cell number

**Q.** And the “cell density, cotreatment with MTX” value [3, 11]?
**A.** cell density was also much lower than that in no-insult control

**Q.** What about the “cell density / cancer cell number” value [3, 12] of the same molecule?
**A.** cell density was also much lower than that in no-insult control; also recorded: significant reduction in the cell density

**Q.** And the “interaction with CDDP on suppression of H460 growth” value ([4]; 3.5 μM CDDP and 10 μM PAN-811)?
**A.** synergistic effect

**Q.** What about the “reduction of MTS reading, cotreatment with CDDP” value [4, 9] of the same molecule?
**A.** 85%

**Q.** What about the “inhibition of the effect of MTX, 5-FU, or CDDP on cell growth of H460 cells” value ([4]; 10 μM PAN-811) of the same molecule?
**A.** did not show any inhibition

**Q.** And the “interaction with 5-FU on suppression of H460 growth” value ([4]; 25 μM 5-FU and 10 μM PAN-811)?
**A.** synergistic effect

**Q.** What about the “reduction of MTS reading, cotreatment with 5-FU” value [4, 10] of the same molecule?
**A.** 84%

**Q.** And the “MTS reading, cotreatment with MTX” value [4, 11]?
**A.** about the same as 10 μM PAN-811 alone

**Q.** And the “reduction of MTS reading” value [4, 12]?
**A.** 76% and 74% and 75%

**Q.** What about the “inhibition of CDDP-induced MTS reduction” value ([5]; 10 μM PAN-811, 3.5 μM CDDP, 12.5% AO) of the same molecule?
**A.** 48%

**Q.** What about the “5-FU-induced MTS reduction” value ([5]; 10 μM PAN-811, 25 μM 5-FU, 12.5% AO) of the same molecule?
**A.** completely blocked

**Q.** And the “5-FU- or CDDP-induced MTS reduction, dose dependence” value ([5]; neurons in 12.5% AO, PAN-811 1.25-10 μM)?
**A.** dose-dependently inhibited

**Q.** What about the ischemic neurodegeneration [6] of the same molecule?
**A.** fully blocked

**Q.** And the “ability to inhibit ribonucleotide reductase” value (ribonucleotide reductase)?
**A.** inhibit

**Q.** And the reduction of mortality ([7]; PAN-811 treated groups collectively)?
**A.** 44%

**Q.** What about the “reduction in brain edema volume” value ([7]; i.v., 2 mg/kg) of the same molecule?
**A.** 70%

**Q.** And the “reduction of infarct volume, maximal protection” value ([7]; single i.v. bolus, 2 mg/kg)?
**A.** 50%

**Q.** What about the “oxidative stress-induced cell death” value [8] of the same molecule?
**A.** inhibited
